# Values joined by “and” are separate entries in the source; they are usually repeats but may differ in a detail not shown here. Equal entries are not always repeated. Square brackets hold non-standard residues; d marks the D form. Peptide text beside a SMILES is read from it. * marks the point of attachment. dPhe(4-NHCONH2) = NC(=O)Nc1ccc(C[C@@H](N)C(=O)O)cc1; Dihydroorotyl(S) = O=C1C[C@@H](C(=O)*)NC(=O)N1; dPhe(4-Cl) = N[C@H](Cc1ccc(Cl)cc1)C(=O)O; Phe(4-NH2) = Nc1ccc(C[C@H](N)C(=O)O)cc1; d2Nal = N[C@H](Cc1ccc2ccccc2c1)C(=O)O; Lys(iPr) = CC(C)NCCCC[C@H](N)C(=O)O; NMeY = CN[C@@H](Cc1ccc(O)cc1)C(=O)O; d3Pal = N[C@H](Cc1cccnc1)C(=O)O
# Key:
# bovine pituitary cells = assay: GnRH-induced LH secretion of bovine pituitary cells in vitro (Example 9); assay type: cell-based; settings: for LH conc in medium: 300 μg cetrorelix, 340 μg Degarelix, 300 ug Abarelix, 130 μg Relugolix
# Procedure: Methods: The heads of mature, non-pregnant cows (n=4) were collected from a local abattoir and the pituitary glands were dissected within 60 minutes of slaughter. Immediately following the dissection, the pituitaries were submerged into ice-cold collection medium. The pituitaries were washed 3 times in collection media and the neurohypophysis was dissected from the adenohypophysis. Using a scalpel, the adenohypophysis (anterior pituitary) was sliced into 1 mm×1 mm pieces and transferred to a 50 mL falcon tube containing DMEM medium with 0.5% BSA. The tissue pieces were washed by manually agitating the tube for 1 minute. The tissue pieces were allowed to settle to the bottom of the tube, then the supernatant was discarded. The macerated pieces were transferred to a 15 mL falcon tube with the dissociation medium and incubated at 37° C. for 60 minutes. Every 10 minutes the tube was vortexed for 1 minute to ensure the tissue was completely dissociated. The dissociation media was inactivated using DMEM with 10% SFB then manually agitating the tube for 1 minute. The dissociated cells were placed in a 40 μm cell strainer to remove the undigested tissue and placed into two 15 mL falcon tubes. The cells were centrifuged at 200×g for 10 minutes and the supernatant was discarded. The cells were washed three times by resuspending in DMEM solution with red blood cell lysing buffer followed by centrifuged at 200×g for 10 minutes. Then the cells were washed with DMEM solution and centrifuged at 200×g for 10 minutes. Following the last centrifugation, the cells were resuspended in DMEM, and the trypan blue test was used to determine the cell count and assess viability. DMEM with 10% fetal bovine serum (FBS) was treated with 10% charcoal-dextran and passed through a 0.2 μm filter. The cells were then plated in a 24-well tissue culture plate with a concentration of 1×10^6 viable cells per well and incubated at 37° C. for 24 hours. The following day, to starve the cells, the culture media was replaced with DMEM without FBS and left to incubate for another 24 hours.
# Treatments: Based on the results from the pilot study, the selected concentration for Cetrorelix (cetrorelix acetate) was 300 μg. The cetrorelix was dissolved in trace levels of DMSO then dissolved in ultrapure water. To standardize the treatments, the nanomole concentration of each GnRH antagonist were matched with the cetrorelix nanomole concentration. The final concentration used for further experiments were: 300 μg for cetrorelix, 340 μg for Degarelix (Degarelix acetate), 300 ug for Abarelix (Abarelix acetate). Both degarelix and abarelix were dissolved ultrapure water. The equivalent Relugolix nanomole concentration was 130 μg which was dissolved in methanol. Treatment cells were preincubated for 60 minutes with either Cetrorelix, Degarelix, Relugolix or Abarelix. Following the preincubation, the cells were incubated for 30 minutes with either 1 nM or 10 nM of GnRH (Gonadorelin, Fertagyl, Merck Animal Health). GnRH doses were based on pituitary study by Paolicchi et al. 1999). The media were collected and centrifuged at 200×g for 10 minutes to remove the cells. Positive (Control) group was only treated with 1 nM and 10 nM of GnRH to determine the maximum LH secretion. LH concentrations in the culture medium was measured by a commercial bovine specific ELISA kit and reported as mIU/ml of medium.
# [1] = test system: GnRH-induced plasma LH levels and ovulation; assay: GnRH challenge in heifers pre-treated with GnRH antagonists: plasma LH and ovulation (Example 10); assay type: in vivo, cattle; settings: for Plasma LH response to GnRH challenge: heifers pre-treated with antagonist 60 minutes before GnRH injection; for Ovulation (Yes/No) within 48 hr of GnRH treatment / Plasma LH concentration at 60 minute, group Mean / Plasma LH concentration at 120 minute, group Mean / Plasma LH concentration at −60 minute, group Mean / Plasma LH concentration at 0 minute, group Mean: heifers; for Ovulation (Yes/No) within 48 hr of GnRH treatment / Dominant follicle diameter (mm) 48 hr after GnRH Injection / Dominant follicle diameter (mm) at GnRH injection: 3 mg antagonist 60 min before GnRH; for Plasma LH concentration at 60 minute, group Mean / Plasma LH concentration at 120 minute, group Mean / Plasma LH concentration at 60 minute / Plasma LH concentration at 120 minute: after GnRH injection; for Plasma LH concentration at −60 minute, group Mean / Plasma LH concentration at −60 minute: time of 3 mg GnRH antagonist injection; for Plasma LH concentration at 0 minute, group Mean / Plasma LH concentration at 0 minute: time of GnRH injection; for Dominant follicle diameter (mm) 48 hr after GnRH Injection / Dominant follicle diameter (mm) at GnRH injection / Plasma LH concentration at 60 minute / Plasma LH concentration at 120 minute / Plasma LH concentration at −60 minute / Plasma LH concentration at 0 minute: individual heifers; for Plasma LH concentration at 60 minute / Plasma LH concentration at 120 minute / Plasma LH concentration at 0 minute: 3 mg antagonist at −60 min; for Plasma LH concentration at −60 minute: 60 mins before GnRH
# Procedure: Methods: Pubertal heifers (n=10) with a functional CL were selected at the Federal University of Santa Maria. Heifers were administered an intramuscular (i/m) injection of prostaglandin F2a analog (PGF; Lutalyse 5 ml or Estrumate 2 ml) to induce CL regression. Heifers were randomly placed into 4 treatment groups at the time of PGF injection: Trt1 (n=2, 3 mg of Abarelix); Trt2 (n=2, 3 mg of Degarelix), Trt3 (n=2, 3 mg of Relugolix) and Trt 4 (n=4; Cetrorelix 3 mg). Heifers were treated with these GnRH antagonists 1.5 days (36 hr) after the PGF injection and the GnRH antagonist treatment time point was defined as −60 mins. Heifers were treated with GnRH ([…] of Fertagyl i/m) at 0 mins to induce ovulation. Jugular venipuncture plasma samples were collected every 60 minutes for 3 hours (from −60 min to 120 minutes, with t=0 min when GnRH is administered). Plasma samples were kept at 4C overnight and LH analysis was performed the next day using a bovine-specific ELISA commercial kit. Transrectal ultrasonography was conducted to the time of GnRH injection (Time 0 hr) and 2 days later (48 hr after GnRH injection) to record the size of dominant follicle and to detect ovulation after treatment.
# [2] = biological target: GnRH receptor on bovine pituitary gonadotrophs (bovine) (UniProt P32236); assay: cell-based or functional assay
# UniProt P32236, sequence (P32236 whole entry): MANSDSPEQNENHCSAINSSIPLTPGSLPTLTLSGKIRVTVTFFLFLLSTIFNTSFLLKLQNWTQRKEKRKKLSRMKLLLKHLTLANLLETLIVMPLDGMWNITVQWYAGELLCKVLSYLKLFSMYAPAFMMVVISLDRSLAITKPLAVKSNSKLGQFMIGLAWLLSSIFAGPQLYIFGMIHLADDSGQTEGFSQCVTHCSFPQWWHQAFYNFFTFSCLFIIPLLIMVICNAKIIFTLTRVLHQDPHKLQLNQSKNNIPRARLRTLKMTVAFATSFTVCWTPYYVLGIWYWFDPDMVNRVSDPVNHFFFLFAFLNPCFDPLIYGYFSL
# [3] = challenged with 1 nM GnRH 30 minutes after 60 minutes preincubation
# [4] = challenged with 10 nM GnRH 30 minutes after 60 minutes preincubation
Molecule,LH conc in medium (bovine pituitary cells; [3]) [mIU/mL],LH conc in medium (bovine pituitary cells; [4]) [mIU/mL],Plasma LH response to GnRH challenge [1],Ovulation (Yes/No) within 48 hr of GnRH treatment [1],"Plasma LH concentration at 60 minute, group Mean [1] [mIU/ml]","Plasma LH concentration at 120 minute, group Mean [1] [mIU/ml]","Plasma LH concentration at −60 minute, group Mean [1] [mIU/ml]","Plasma LH concentration at 0 minute, group Mean [1] [mIU/ml]",Dominant follicle diameter (mm) 48 hr after GnRH Injection [1],Dominant follicle diameter (mm) at GnRH injection [1],Plasma LH concentration at 60 minute [1],Plasma LH concentration at 120 minute [1],Plasma LH concentration at −60 minute [1],Plasma LH concentration at 0 minute [1],"LH conc (mIU/mL) in medium from bovine pituitary cells in vitro, preincubated 60 min with the antagonist, then challenged 30 min with 1 nM GnRH (control without antagonist: 2.01) [2] [mIU/mL]","LH conc (mIU/mL) in medium from bovine pituitary cells in vitro, preincubated 60 min with the antagonist, then challenged 30 min with 10 nM GnRH (control without antagonist: 2.49) [2] [mIU/mL]",other results
"CONC(=O)Nc1ccc(-c2sc3c(c2CN(C)C)c(=O)n(-c2ccc(OC)nn2)c(=O)n3Cc2c(F)cccc2F)cc1 [Relugolix, 1-[4-[1-[(2,6-difluorophenyl)methyl]-5-[(dimethylamino)methyl]-3-(6-methoxypyridazin-3-yl)-2,4-dioxothieno[2,3-d]pyrimidin-6-yl]phenyl]-3-methoxyurea]",1.72,1.47,did not register an increase in LH,No,13.94,6.97,18.48,19.92,10 mm,9.8 mm and 12.1 mm,22.66 mIU/ml and 5.22 mIU/ml,9.71 mIU/ml and 4.23 mIU/ml,30.96 mIU/ml and 5.99 mIU/ml,33.09 mIU/ml and 6.75 mIU/ml,–,–,Plasma LH response to GnRH challenge ([1]; listed as relugolix): block the GnRH-induced LH release; Ovulation (Yes/No) within 48 hr of GnRH treatment ([1]; listed as relugolix): prevent GnRH-induced ovulations
"CC(=O)N[C@H](Cc1ccc2ccccc2c1)C(=O)N[C@H](Cc1ccc(Cl)cc1)C(=O)N[C@H](Cc1cccnc1)C(=O)N[C@@H](CO)C(=O)N[C@@H](Cc1ccc(NC(=O)[C@@H]2CC(=O)NC(=O)N2)cc1)C(=O)N[C@H](Cc1ccc(NC(N)=O)cc1)C(=O)N[C@@H](CC(C)C)C(=O)N[C@@H](CCCCNC(C)C)C(=O)N1CCC[C@H]1C(=O)N[C@H](C)C(N)=O [Degarelix, N-acetyl-3-(2-naphthyl)-D-alanyl-4-chloro-D-phenylalanyl-3-(3-pyridyl)-D-alanyl-L-seryl-4-((S)-dihydroorotamido)-L-phenylalanyl-4-ureido-D-phenylalanyl-L-leucyl-N6-isopropyl-L-lysyl-L-prolyl-D-alaninamide] (Ac-[d2Nal][dPhe(4-Cl)][d3Pal]S[Phe(4-NH2)](Dihydroorotyl(S))[dPhe(4-NHCONH2)]L[Lys(iPr)]P[dA]-NH2)",1.33,1.21,did not register an increase in LH,No,8.60,8.62,8.14,8.89,12 mm and 13.2 mm,14 mm and 15.1 mm,4.87 mIU/ml and 12.32 mIU/ml,5.25 mIU/ml and 11.98 mIU/ml,5.54 mIU/ml and 10.74 mIU/ml,5.37 mIU/ml and 12.41 mIU/ml,–,–,Plasma LH response to GnRH challenge ([1]; listed as degarelix): block the GnRH-induced LH release; Ovulation (Yes/No) within 48 hr of GnRH treatment ([1]; listed as degarelix): prevent GnRH-induced ovulations
Abarelix (Abarelix acetate) (peptide),–,–,–,–,–,–,–,–,–,–,–,–,–,–,2.21,2.15,–
"CC(=O)N[C@H](Cc1ccc2ccccc2c1)C(=O)N[C@H](Cc1ccc(Cl)cc1)C(=O)N[C@H](Cc1cccnc1)C(=O)N[C@@H](CO)C(=O)N(C)[C@@H](Cc1ccc(O)cc1)C(=O)N[C@H](CC(N)=O)C(=O)N[C@@H](CC(C)C)C(=O)N[C@@H](CCCCNC(C)C)C(=O)N1CCC[C@H]1C(=O)N[C@H](C)C(N)=O [Abarelix, N-acetyl-3-(2-naphthyl)-D-alanyl-4-chloro-D-phenylalanyl-3-(3-pyridyl)-D-alanyl-L-seryl-N-methyl-L-tyrosyl-D-asparagyl-L-leucyl-N6-isopropyl-L-lysyl-L-prolyl-D-alaninamide] (Ac-[d2Nal][dPhe(4-Cl)][d3Pal]S[NMeY][dN]L[Lys(iPr)]P[dA]-NH2)",2.21,2.15,did not register an increase in LH,No,10.49,11.23,9.43,11.26,14 mm and 12 mm,14.4 mm and 13.6 mm,8.96 mIU/ml and 12.02 mIU/ml,9.32 mIU/ml and 13.14 mIU/ml,8.65 mIU/ml and 10.21 mIU/ml,8.98 mIU/ml and 13.54 mIU/ml,–,–,Effect on LH suppression (bovine pituitary cells; 1 nM GnRH challenge): no effect; Effect on LH concentration (bovine pituitary cells; 10 nM challenge): modest decrease; Plasma LH response to GnRH challenge ([1]; listed as abarelix): block the GnRH-induced LH release; Ovulation (Yes/No) within 48 hr of GnRH treatment ([1]; listed as abarelix): prevent GnRH-induced ovulations
Degarelix (Degarelix acetate) (peptide),–,–,–,–,–,–,–,–,–,–,–,–,–,–,1.33,1.21,–
